row,SMILES,logP
1,CN1CC=C(c2cccs2)CC1,2.51
2,OCCN1CC=C(c2ccccc2)CC1,2
3,Fc1ccc(C2=CCNCC2)cc1,2.37
4,CN1CC=C(c2ccncc2)CC1,1.25
5,CC1=C(c2ccccc2)CCN(C)C1,3.18
6,CN1CC=C(c2ccc(Cl)cc2)CC1,3.32
7,CCN1CC=C(c2ccccc2)CC1,3.18
8,Cc1ccccc1C1=CCN(C)CC1,3.1
9,C1=C(c2ccccc2)CCN(CCc2ccccc2)C1,3.98
10,CN1CC=C(c2cccc(N)c2)CC1,1.47
11,C1=C(c2ccccc2)CCNC1,1.99
12,CN1CC=C(c2ccc(N)cc2)CC1,1.48
